Measured values published in PMC13242721 (Angewandte Chemie (International ed. in English), 2024).
Starred links: 1 amine or outer side, 2 acyl side, 3 side chain; linkers in the order of their positions; H or OH if unused. Non-standard residues stand in square brackets, D forms with d. Residues, ends and D or L forms follow the SMILES beside them. *: point of attachment. Palmitoyl = CCCCCCCCCCCCCCCC(=O)*; AzaAla = CN(N[*:1])C(=O)[*:2]

Key:
GIPR = target: T1, GIPR (Homo sapiens, UniProt P48546); experiment: cAMP luciferase reporter assay, GIPR agonism; assay type: cell-based
T1 sequence (P48546 22-466): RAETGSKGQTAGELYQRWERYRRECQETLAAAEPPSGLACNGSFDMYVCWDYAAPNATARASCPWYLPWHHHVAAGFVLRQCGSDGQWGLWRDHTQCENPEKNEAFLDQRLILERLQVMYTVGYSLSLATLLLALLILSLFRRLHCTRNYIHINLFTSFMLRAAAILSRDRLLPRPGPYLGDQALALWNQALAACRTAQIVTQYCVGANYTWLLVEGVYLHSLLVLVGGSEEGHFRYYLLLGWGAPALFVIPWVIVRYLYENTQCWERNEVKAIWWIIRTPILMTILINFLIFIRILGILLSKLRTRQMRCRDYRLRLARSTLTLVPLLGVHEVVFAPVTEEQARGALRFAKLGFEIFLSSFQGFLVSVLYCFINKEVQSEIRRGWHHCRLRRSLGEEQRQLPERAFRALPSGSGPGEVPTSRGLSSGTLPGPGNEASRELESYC

GLP-1R [1] = target: T2, GLP-1R (Homo sapiens, UniProt P43220)
GLP-1R [2] = target: T2, GLP-1R; experiment: cAMP luciferase reporter assay, GLP-1R agonism; assay type: cell-based
GLP-1R [3] = target: T2, GLP-1R; details: alanine scanning of GLP-1; cited from earlier work

T2 sequence (P43220 24-463): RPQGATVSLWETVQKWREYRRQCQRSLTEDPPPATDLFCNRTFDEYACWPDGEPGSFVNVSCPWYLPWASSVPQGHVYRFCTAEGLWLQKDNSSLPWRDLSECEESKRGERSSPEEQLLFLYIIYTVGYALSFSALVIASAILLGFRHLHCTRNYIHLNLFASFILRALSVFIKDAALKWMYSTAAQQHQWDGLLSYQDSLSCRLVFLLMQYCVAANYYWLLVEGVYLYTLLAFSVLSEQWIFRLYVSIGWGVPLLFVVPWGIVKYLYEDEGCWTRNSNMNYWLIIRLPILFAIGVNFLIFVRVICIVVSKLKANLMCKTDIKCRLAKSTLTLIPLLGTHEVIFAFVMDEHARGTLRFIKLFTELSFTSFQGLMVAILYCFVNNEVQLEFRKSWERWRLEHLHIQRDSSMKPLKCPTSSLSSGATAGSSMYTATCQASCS

Compound	EC50 (GIPR) [pM]	efficacy compared to native ligand (in words) (GIPR; GIPR, cAMP luciferase reporter assay)	Fold-Shift (↓) = (EC50 with DPP4)/(EC50 without DPP4) (GLP-1R [1])	efficacy compared to native ligand (in words) (GLP-1R [2])	adenylyl cyclase activity (in words) (GLP-1R [3])
CCCCCCCCCCCCCCCC(=O)NCCCC[C@H](NC(=O)[C@H](CO)NC(=O)[C@@H]1CCCN1C(=O)[C@@H]1CCCN1C(=O)[C@@H]1CCCN1C(=O)[C@H](C)NC(=O)CNC(=O)[C@H](CO)NC(=O)[C@H](CO)NC(=O)[C@@H]1CCCN1C(=O)CNC(=O)CNC(=O)[C@H](C)NC(=O)[C@H](CC(C)C)NC(=O)[C@H](CC(C)C)NC(=O)[C@H](Cc1c[nH]c2ccccc12)NC(=O)[C@H](CC(N)=O)NC(=O)[C@@H](NC(=O)[C@H](Cc1ccccc1)NC(=O)[C@H](CCC(=O)O)NC(=O)[C@H](C)NC(=O)[C@H](C)NC(=O)[C@H](C)NC(=O)[C@H](CCC(N)=O)NC(=O)[C@H](CCCCN)NC(=O)[C@H](CC(=O)O)NC(=O)[C@H](CC(C)C)NC(=O)[C@H](Cc1ccc(O)cc1)NC(=O)[C@@H](NC(=O)[C@H](CO)NC(=O)[C@H](Cc1ccc(O)cc1)NC(=O)[C@H](CC(=O)O)NC(=O)[C@H](CO)NC(=O)[C@@H](NC(=O)[C@H](Cc1ccccc1)NC(=O)[C@@H](NC(=O)CNC(=O)[C@H](CCC(=O)O)NC(=O)N(C)NC(=O)[C@@H](N)Cc1ccc(O)cc1)[C@@H](C)O)[C@@H](C)O)[C@@H](C)CC)C(C)C)C(N)=O [DA X2AzaA, X20A] (H-Y[AzaAla]EGTFTSDYSIYLDKQAAAEFVNWLLAGGPSSGAPPPSK(Palmitoyl)-NH2; N-terminus and C-terminus assumed)	2.51	equiefficacious	1.0	equiefficacious	–
Glu9Ala variant: literature alanine-scan variant of GLP-1 (HDEFERHAAGTFTSDVSSYLEGQAAKEFIAWLVKGRG; Glucagon-like peptide 1; UniProt P01275 92-128, looked up, variant E9A)	–	–	–	–	equivalent adenylyl cyclase activity
